Data: ChEMBL document CHEMBL1926642, “Relevance of the C-5 position to schweinfurthin induced cytotoxicity” (2011)

How the values were obtained:
Format in all cases: functional
MOLT-4 = test: Growth inhibition of human MOLT4 cells after 48 hrs by sulforhodamine B assay; conditions: MOLT-4, 48 h; for TGI: read-out: pTGI (converted)
HT-29 = test: Growth inhibition of human HT-29 cells after 48 hrs by sulforhodamine B assay; conditions: HT-29, 48 h; for TGI: read-out: pTGI (converted)
SF-539 = test: Growth inhibition of human SF539 cells after 48 hrs by sulforhodamine B assay; conditions: SF-539, 48 h; for TGI: read-out: pTGI (converted)
SNB-19 = test: Growth inhibition of human SNB19 cells after 48 hrs by sulforhodamine B assay; conditions: SNB-19, 48 h; for TGI: read-out: pTGI (converted)
LOX IMVI = test: Growth inhibition of human LOXIMVI cells after 48 hrs by sulforhodamine B assay; conditions: for TGI: read-out: pTGI (converted)
Malme-3M = test: Growth inhibition of human MALME-3M cells after 48 hrs by sulforhodamine B assay; conditions: for TGI: read-out: pTGI (converted)
MDA-MB-435 = test: Growth inhibition of human MDA-MB-435 cells after 48 hrs by sulforhodamine B assay; conditions: MDA-MB-435, 48 h; for TGI: read-out: pTGI (converted)
SK-MEL-2 = test: Growth inhibition of human SK-MEL-2 cells after 48 hrs by sulforhodamine B assay; conditions: SK-MEL-2, 48 h; for TGI: read-out: pTGI (converted)
SK-MEL-5 = test: Growth inhibition of human SK-MEL-5 cells after 48 hrs by sulforhodamine B assay; conditions: SK-MEL-5, 48 h; for TGI: read-out: pTGI (converted)
UACC-257 = test: Growth inhibition of human UACC257 cells after 48 hrs by sulforhodamine B assay; conditions: UACC-257, 48 h; for TGI: read-out: pTGI (converted)
UACC-62 = test: Growth inhibition of human UACC62 cells after 48 hrs by sulforhodamine B assay; conditions: UACC-62, 48 h; for TGI: read-out: pTGI (converted)
IGROV-1 = test: Growth inhibition of human IGROV1 cells after 48 hrs by sulforhodamine B assay; conditions: IGROV-1, 48 h; for TGI: read-out: pTGI (converted)
OVCAR-3 = test: Growth inhibition of human OVCAR3 cells after 48 hrs by sulforhodamine B assay; conditions: OVCAR-3, 48 h; for TGI: read-out: pTGI (converted)
OVCAR-4 = test: Growth inhibition of human OVCAR4 cells after 48 hrs by sulforhodamine B assay; conditions: OVCAR-4, 48 h; for TGI: read-out: pTGI (converted)
OVCAR-8 = test: Growth inhibition of human OVCAR8 cells after 48 hrs by sulforhodamine B assay; conditions: OVCAR-8, 48 h; for TGI: read-out: pTGI (converted)
786-0 = test: Growth inhibition of human 786-0 cells after 48 hrs by sulforhodamine B assay; conditions: 786-0, 48 h; for CC50: read-out: pLC50 (the source's name) (converted); for TGI: read-out: pTGI (converted)
A498 = test: Growth inhibition of human A498 cells after 48 hrs by sulforhodamine B assay; conditions: A498, 48 h; for TGI: read-out: pTGI (converted)
CAKI-1 = test: Growth inhibition of human Caki1 cells after 48 hrs by sulforhodamine B assay; conditions: CAKI-1, 48 h; for TGI: read-out: pTGI (converted)
SN12C = test: Growth inhibition of human SN12C cells after 48 hrs by sulforhodamine B assay; conditions: for TGI: read-out: pTGI (converted)
TK-10 = test: Growth inhibition of human TK10 cells after 48 hrs by sulforhodamine B assay; conditions: TK-10, 48 h; for TGI: read-out: pTGI (converted)
DU-145 = test: Growth inhibition of human DU145 cells after 48 hrs by sulforhodamine B assay; conditions: DU-145, 48 h; for TGI: read-out: pTGI (converted)
MCF7 = test: Growth inhibition of human MCF7 cells after 48 hrs by sulforhodamine B assay; conditions: MCF7, 48 h
MDA-MB-231 = test: Growth inhibition of human MDA-MB-231/ATCC cells after 48 hrs by sulforhodamine B assay; conditions: MDA-MB-231, 48 h; for CC50: read-out: pLC50 (the source's name) (converted); for TGI: read-out: pTGI (converted)
SR = test: Growth inhibition of human SR cells after 48 hrs by sulforhodamine B assay
HOP-92 = test: Growth inhibition of human HOP92 cells after 48 hrs by sulforhodamine B assay; conditions: HOP-92, 48 h
M14 = test: Growth inhibition of human M14 cells after 48 hrs by sulforhodamine B assay; conditions: M14, 48 h
NCI/ADR-RES = test: Growth inhibition of human NCI/ADR-RES cells after 48 hrs by sulforhodamine B assay
MDA-MB-468 = test: Growth inhibition of human MDA-MB-468 cells after 48 hrs by sulforhodamine B assay; conditions: MDA-MB-468, 48 h

In the case of `COc1cc(/C=C/c2cc3c(c(OC)c2)O[C@]2(C)CC[C@@H](O)C(C)(C)[C@H]2C3)cc(O)c1C/C=C(\C)CCC=C(C)C`, the GI50 (MOLT-4) is reported as 891 nM, the LC50 (MOLT-4) is reported as 33.1 µM and the TGI (MOLT-4) is reported as 2.75 µM. For the same compound, the GI50 (HT-29) was 398 nM, the LC50 (concentration killing 50% of cells) (HT-29) was 13.2 µM and the TGI (HT-29) was 2630 nM. For the same compound, the GI50 (SF-539) was 155 nM, the LC50 (SF-539) was 7.59 µM and the TGI (SF-539) was 1.1 µM. The GI50 (SNB-19) was 3.89 µM, the LC50 (SNB-19) was 41.7 µM and the TGI (SNB-19) was 14.1 µM. The GI50 (LOX IMVI) was 1410 nM, the LC50 (LOX IMVI) was 15.8 µM and the TGI (LOX IMVI) was 5.01 µM. For the same compound, the GI50 (Malme-3M) was 5.13 µM, the LC50 (Malme-3M) was 36.3 µM and the TGI (Malme-3M) was 13.5 µM. It also gave a GI50 (MDA-MB-435) of 4.27 µM, an LC50 (MDA-MB-435) of 28.8 µM and a TGI (MDA-MB-435) of 11.7 µM. For the same compound, the GI50 (SK-MEL-2) was 5.37 µM, the LC50 (SK-MEL-2) was 27.5 µM and the TGI (SK-MEL-2) was 12 µM. For the same compound, the GI50 (SK-MEL-5) was 0.955 µM, the LC50 (SK-MEL-5) was 6.92 µM and the TGI (SK-MEL-5) was 2.34 µM. For the same compound, the GI50 (UACC-257) was 6.76 µM, the LC50 (UACC-257) was 29.5 µM and the TGI (UACC-257) was 14.1 µM. The GI50 (UACC-62) was 1070 nM, the LC50 (50% lethal concentration) (UACC-62) was 13.8 µM and the TGI (UACC-62) was 3.8 µM. It also gave a GI50 (IGROV-1) of 5.75 µM, an LC50 (IGROV-1) of 30.9 µM and a TGI (IGROV-1) of 13.5 µM. The GI50 (OVCAR-3) was 3.63 µM, the LC50 (OVCAR-3) was 23.4 µM and the TGI (OVCAR-3) was 10.5 µM. It also gave a GI50 (OVCAR-4) of 5.75 µM, an LC50 (OVCAR-4) of 28.8 µM and a TGI (OVCAR-4) of 12.9 µM. The GI50 (OVCAR-8) was 5.5 µM, the LC50 (OVCAR-8) was 30.9 µM and the TGI (OVCAR-8) was 13.2 µM. It also gave a GI50 (786-0) of 123 nM, a CC50 (786-0) of 4.17 µM and a TGI (786-0) of 363 nM. It also gave a GI50 (A498) of 1.82 µM, an LC50 (A498) of 21.9 µM and a TGI (A498) of 8.32 µM. The GI50 (CAKI-1) was 1120 nM, the LC50 (CAKI-1) was over 50.1 µM and the TGI (CAKI-1) was 6.61 µM. For the same compound, the GI50 (SN12C) was 5.89 µM, the LC50 (SN12C) was 28.8 µM and the TGI (SN12C) was 13.2 µM. For the same compound, the GI50 (TK-10) was 7.08 µM, the LC50 (TK-10) was 32.4 µM and the TGI (TK-10) was 15.1 µM. It also gave a GI50 (DU-145) of 3.8 µM, an LC50 (DU-145) of 22.9 µM and a TGI (DU-145) of 10.2 µM. It also gave a GI50 (MCF7) of 1020 nM, an LC50 (MCF7) of 17.4 µM and a TGI (MCF7; read-out: pTGI (converted)) of 5.89 µM. For the same compound, the GI50 (MDA-MB-231) was 2040 nM, the CC50 (MDA-MB-231) was 19.5 µM and the TGI (MDA-MB-231) was 7.76 µM. It also gave a GI50 (SR) of 1020 nM, an LC50 (SR) of 22.4 µM and a TGI (SR; read-out: pTGI (converted)) of 3.16 µM.

In the case of `COCOc1cc(/C=C/c2cc(C=O)c3c(c2)C[C@@H]2C(C)(C)[C@H](O)CC[C@@]2(C)O3)cc(OC)c1C/C=C(\C)CCC=C(C)C`, the GI50 (MOLT-4) is reported as 2820 nM, the LC50 (MOLT-4) is reported as over 100 µM and the TGI (MOLT-4) is reported as 13.2 µM. It also gave a GI50 (HOP-92) of 15.8 µM, an LC50 (HOP-92) of over 100 µM and a TGI (HOP-92; read-out: pTGI (converted)) of over 100 µM. It also gave a GI50 (HT-29) of 4370 nM, an LC50 (concentration killing 50% of cells) (HT-29) of over 100 µM and a TGI (HT-29) of over 100000 nM. The GI50 (SF-539) was 891 nM, the LC50 (SF-539) was over 100 µM and the TGI (SF-539) was 12.9 µM. The GI50 (SNB-19) was 16.6 µM, the LC50 (SNB-19) was over 100 µM and the TGI (SNB-19) was over 100 µM. The GI50 (LOX IMVI) was 3980 nM, the LC50 (LOX IMVI) was 44.7 µM and the TGI (LOX IMVI) was 15.8 µM. For the same compound, the GI50 (Malme-3M) was 7.94 µM, the LC50 (Malme-3M) was over 100 µM and the TGI (Malme-3M) was 95.5 µM. It also gave a GI50 (M14) of 11.2 µM, an LC50 (M14) of over 100 µM and a TGI (M14; read-out: pTGI (converted)) of 64.6 µM. The GI50 (MDA-MB-435) was 6.76 µM, the LC50 (MDA-MB-435) was over 100 µM and the TGI (MDA-MB-435) was 69.2 µM. The GI50 (SK-MEL-2) was 12.9 µM, the LC50 (SK-MEL-2) was over 100 µM and the TGI (SK-MEL-2) was over 100 µM. It also gave a GI50 (SK-MEL-5) of 7.24 µM, an LC50 (SK-MEL-5) of 58.9 µM and a TGI (SK-MEL-5) of 22.9 µM. It also gave a GI50 (UACC-257) of 3.98 µM, an LC50 (UACC-257) of over 100 µM and a TGI (UACC-257) of 49 µM. It also gave a GI50 (UACC-62) of 4070 nM, an LC50 (50% lethal concentration) (UACC-62) of over 100 µM and a TGI (UACC-62) of over 100 µM. For the same compound, the GI50 (IGROV-1) was 9.77 µM, the LC50 (IGROV-1) was over 100 µM and the TGI (IGROV-1) was over 100 µM. It also gave a GI50 (OVCAR-3) of 27.5 µM, an LC50 (OVCAR-3) of over 100 µM and a TGI (OVCAR-3) of over 100 µM. It also gave a GI50 (OVCAR-4) of 6.92 µM, an LC50 (OVCAR-4) of over 100 µM and a TGI (OVCAR-4) of over 100 µM. For the same compound, the GI50 (OVCAR-8) was 17 µM, the LC50 (OVCAR-8) was over 100 µM and the TGI (OVCAR-8) was 61.7 µM. The GI50 (NCI/ADR-RES) was 21.4 µM, the LC50 (NCI/ADR-RES) was over 100 µM and the TGI (NCI/ADR-RES; read-out: pTGI (converted)) was over 100 µM. For the same compound, the GI50 (786-0) was 1020 nM, the CC50 (786-0) was over 100 µM and the TGI (786-0) was over 100000 nM. For the same compound, the GI50 (A498) was 7.59 µM, the LC50 (A498) was over 100 µM and the TGI (A498) was over 100 µM. The GI50 (CAKI-1) was 3980 nM, the LC50 (CAKI-1) was over 100 µM and the TGI (CAKI-1) was over 100 µM. For the same compound, the GI50 (SN12C) was 14.8 µM, the LC50 (SN12C) was over 100 µM and the TGI (SN12C) was over 100 µM. The GI50 (TK-10) was 25.1 µM, the LC50 (TK-10) was over 100 µM and the TGI (TK-10) was over 100 µM. It also gave a GI50 (DU-145) of 13.5 µM, an LC50 (DU-145) of over 100 µM and a TGI (DU-145) of over 100 µM. The GI50 (MDA-MB-231) was 3390 nM, the CC50 (MDA-MB-231) was over 100 µM and the TGI (MDA-MB-231) was 15.8 µM. The GI50 (MDA-MB-468) was 4.9 µM, the LC50 (MDA-MB-468) was over 100 µM and the TGI (MDA-MB-468; read-out: pTGI (converted)) was 46.8 µM.
